In experiment [1] the test system is IL-12– and IL-23–dependent phosphorylation of STAT4 and STAT3. Also on record: method as in PMID 31341059. To be noted: cited from earlier work.
Experiment [2] deals with T1, Biotinylated recombinant rat IL23R (rIL23R^biot, hGH.ratIL23R.24-317.GS.Avi.TEV.8His) (rat, UniProt F1LX96 24-317, biotinylated (TurboBiotinylase)).
T1 construct: rat IL-23 receptor subunit IL-23R, extracellular domain, residues 24-317, from the construct name hGH.ratIL23R.24-317.GS.Avi.TEV.8His; A GS linker stands between the receptor and the Avi tag; The 8His tag follows a TEV site; also called rat IL-23R ECD; not shown: Avi, C-terminal, kept; His8, C-terminal, cleaved
T1 sequence (looked up): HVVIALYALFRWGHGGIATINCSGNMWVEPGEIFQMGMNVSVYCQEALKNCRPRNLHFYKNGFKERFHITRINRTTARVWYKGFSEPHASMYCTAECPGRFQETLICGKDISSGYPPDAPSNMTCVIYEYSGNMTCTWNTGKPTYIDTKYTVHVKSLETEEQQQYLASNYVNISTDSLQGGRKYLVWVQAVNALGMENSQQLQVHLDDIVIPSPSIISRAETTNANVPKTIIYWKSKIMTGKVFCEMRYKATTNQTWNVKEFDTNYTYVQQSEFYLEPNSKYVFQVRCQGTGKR
Put plainly: SPR; ~2500 RU biotinylated rat IL-23R captured on a streptavidin chip; JNJ-77242113 injected at multiple concentrations; PBS, 0.05% P20, 5% DMSO; 37 °C; association 150 s, dissociation 2000 s; Biacore 8K+, parallel kinetics, 1:1 binding model. To be noted: both partners purified. (In general: Surface plasmon resonance follows binding to a sensor surface in real time, without labels.)

Consider two molecules from paper PMC11289455 (Scientific Reports, 2024).

What is called Kd is the equilibrium constant for the complex coming apart.

Where “and” joins values, the source holds several entries; their conditions need not be identical. Equal entries are not always repeated. Positions of bridges follow the written chain, without caps; N, C: chain ends. Non-standard residues stand in square brackets, D forms with d. Trp(7-Me) = Cc1cccc2c(C[C@H](N)C(=O)O)c[nH]c12; 2Nal = N[C@@H](Cc1ccc2ccccc2c1)C(=O)O; AEF = NCCOc1ccc(C[C@H](N)C(=O)O)cc1; 3Pal = N[C@@H](Cc1cccnc1)C(=O)O; Pen = CC(C)(S)[C@H](N)C(=O)O; Thp = NC1(C(=O)O)CCOCC1; Sar = CNCC(=O)O

For the molecule deucravacitinib, the “Effect on IL-12– and IL-23–dependent phosphorylation of STAT4 and STAT3” value in experiment [1] is reported as “inhibits both”.
Ac-[Pen]NT[Trp(7-Me)]K(Ac)[Pen][AEF][2Nal][Thp]EN[3Pal][Sar]-NH2 (disulfide 1-6) [JNJ-77242113]: in experiment [2], the Kd is 0.0175 nM and 0.012 to 0.023 nM.
